This passage reports IC50 results from US10266513B2 (Pfizer Inc., priority 2012, dated 2019).

The structures appear in SMILES notation.

human full-length BTK Kinase, sequence (Q06187 whole entry): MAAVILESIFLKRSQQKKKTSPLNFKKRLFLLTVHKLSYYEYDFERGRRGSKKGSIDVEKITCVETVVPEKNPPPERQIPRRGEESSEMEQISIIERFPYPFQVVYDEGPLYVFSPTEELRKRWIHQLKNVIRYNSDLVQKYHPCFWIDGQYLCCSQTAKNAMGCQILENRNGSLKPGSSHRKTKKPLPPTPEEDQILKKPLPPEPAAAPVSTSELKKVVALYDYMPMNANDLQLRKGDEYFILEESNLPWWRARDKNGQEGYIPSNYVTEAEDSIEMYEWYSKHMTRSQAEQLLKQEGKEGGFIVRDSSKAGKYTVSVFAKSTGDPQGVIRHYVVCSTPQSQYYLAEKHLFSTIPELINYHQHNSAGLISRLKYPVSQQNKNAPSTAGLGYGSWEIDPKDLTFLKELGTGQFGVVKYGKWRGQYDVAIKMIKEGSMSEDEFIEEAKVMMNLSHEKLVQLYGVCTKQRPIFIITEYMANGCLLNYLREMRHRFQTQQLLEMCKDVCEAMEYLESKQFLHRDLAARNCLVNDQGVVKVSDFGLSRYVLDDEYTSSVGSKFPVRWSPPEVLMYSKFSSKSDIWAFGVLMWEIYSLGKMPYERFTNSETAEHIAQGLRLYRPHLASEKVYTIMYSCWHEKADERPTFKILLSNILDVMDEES

This assay has as its target human full-length BTK Kinase (Homo sapiens (Human), UniProt Q06187). Briefly: Human BTK LanthaScreen Assay (TR-FRET). The class given is biochemical. Particulars: 50 μM ATP, FAM-Srctide peptide substrate, read-out: BTK Inhibition IC50. An excerpt:
Human BTK LanthaScreen Assay
For orientation: Time-resolved FRET reads energy transfer from a long-lived donor to a nearby acceptor.
What is called IC50 is the concentration at which inhibition is half-maximal. As to `C[C@H]1CC[C@@H](n2nc(-c3ccc(Oc4ccc(F)cc4F)cc3)c(C(N)=O)c2N)CN1C#N` (relative stereo) [Example 121, 5-amino-1-[(3R*,6S*)-1-cyano-6-methylpiperidin-3-yl]-3-[4-(2,4-difluorophenoxy)phenyl]-1H-pyrazole-4-carboxamide], the IC50 is 9.9 nM. The result for `N#CN1CCCC(n2nc(-c3ccc(Oc4ccccc4)cc3)c(C(N)=O)c2N)C1` (single isomer, unassigned) [Example 3] reads 3.3 nM. Turning to `N#CN1CCCC(n2nc(-c3ccc(Oc4ccc(Cl)cc4)cc3)c(C(N)=O)c2N)C1` (single isomer, unassigned) [Example 14], the IC50 amounted to 12.5 nM. Take `Cc1ccc(Oc2ccc(-c3nn(C4CCCN(C#N)C4)c(N)c3C(N)=O)cc2)cc1C` (single isomer, unassigned) [Example 17]: the IC50 is 0.4 nM.

As to `Cc1ccc(Oc2ccc(-c3nn(C4CCCN(C#N)C4)c(N)c3C(N)=O)cc2)cc1C` (single isomer, unassigned) [Example 18], the half-maximal inhibitory concentration (IC50) is 3 nM. On to `N#CN1CCCC(n2nc(-c3ccc(Oc4ccc(F)cc4F)cc3)c(C(N)=O)c2N)C1` (single isomer, unassigned) [Example 26], for which the IC50 was 17.3 nM. `Cc1cc(F)ccc1Oc1ccc(-c2nn(C3CCCN(C#N)C3)c(N)c2C(N)=O)cc1` (single isomer, unassigned) [Example 33]: the IC50 is 24.1 nM.

In the case of `Cc1cc(F)ccc1Oc1ccc(-c2nn(C3CCCN(C#N)C3)c(N)c2C(N)=O)cc1` (single isomer, unassigned) [Example 34], the IC50 turned out to be 3.8 nM. The result for `N#CN1CCCC(n2nc(-c3ccc(Oc4ccc(F)cc4Cl)cc3)c(C(N)=O)c2N)C1` (single isomer, unassigned) [Example 36] reads 25.3 nM; that for `N#CN1CCCC(n2nc(-c3ccc(Oc4ccc(F)cc4Cl)cc3)c(C(N)=O)c2N)C1` (single isomer, unassigned) [Example 37], 0.79 nM.

Take `N#CN1CCC[C@@H](n2nc(-c3ccc(Cc4ccccc4F)cc3)c(C(N)=O)c2N)C1` (single isomer, unassigned) [Example 75]: the 50% inhibitory concentration (IC50) was 0.81 nM.

Consider `N#CN1CCCC(n2nc(-c3ccc(Cc4cccc(F)c4)cc3)c(C(N)=O)c2N)C1` (single isomer, unassigned) [Example 78], for which the IC50 was found to be 1.4 nM. `N#CN1CCCC(n2nc(-c3ccc(Cc4cccc(F)c4)cc3)c(C(N)=O)c2N)C1` (single isomer, unassigned) [Example 79]: the IC50 is 31 nM. The result for `N#CN1CCCC(n2nc(-c3ccc(Cc4ccc(F)cc4F)cc3)c(C(N)=O)c2N)C1` (single isomer, unassigned) [Example 81] reads 5.7 nM. Take `N#CN1CCCC(n2nc(-c3ccc(Cc4ccc(F)cc4F)cc3)c(C(N)=O)c2N)C1` (single isomer, unassigned) [Example 82]: the IC50 is 126 nM. Consider `N#CN1CCCC(n2nc(-c3ccc(Cc4ccc(F)c(F)c4)cc3)c(C(N)=O)c2N)C1` (single isomer, unassigned) [Example 84], for which the IC50 was 5.6 nM.

Take `N#CN1CCCC(n2nc(-c3ccc(Cc4ccc(F)c(F)c4)cc3)c(C(N)=O)c2N)C1` (single isomer, unassigned) [Example 85]: the half-inhibitory concentration (IC50) came out at 212 nM. `N#CN1CCCC(n2nc(-c3cccc(Oc4ccccc4)c3)c(C(N)=O)c2N)C1` (single isomer, unassigned) [Example 90]: the IC50 came to 3.2 nM. With `N#CN1CCCC(n2nc(-c3cccc(Oc4ccccc4)c3)c(C(N)=O)c2N)C1` (single isomer, unassigned) [Example 91], the IC50 is 154 nM. In the case of `N#CN1CCCC(n2nc(-c3ccc(Oc4ccc(Cl)cn4)cc3)c(C(N)=O)c2N)C1` (single isomer, unassigned) [Example 109], the IC50 was 128 nM.

With `Cc1ccc(Oc2ccc(-c3nn(C4CCCN(C#N)C4)c(N)c3C(N)=O)cc2)nc1` (single isomer, unassigned) [Example 113], the IC50 was found to be 264 nM. The result for `Cc1ccc(Oc2ccc(-c3nn(C4CCCN(C#N)C4)c(N)c3C(N)=O)cc2)nc1` (single isomer, unassigned) [Example 114] reads 10.1 nM; that for `N#CCN1CCCC(n2nc(-c3ccc(Oc4ccccc4)cc3)c(C(N)=O)c2N)C1` (stereo not shown) [Example 4, 5-amino-1-[1-(cyanomethyl)piperidin-3-yl]-3-(4-phenoxyphenyl)-1H-pyrazole-4-carboxamide], 35 nM. The result for `N#CN1CCC(n2nc(-c3ccc(Oc4ccccc4)cc3)c(C(N)=O)c2N)CC1` [Example 5, 5-amino-1-(1-cyanopiperidin-4-yl)-3-(4-phenoxyphenyl)-1H-pyrazole-4-carboxamide] reads 32.1 nM; that for `N#CN1CCC(n2nc(-c3ccc(Oc4ccccc4)cc3)c(C(N)=O)c2N)C1` (stereo not shown) [Example 7, 5-amino-1-(1-cyanopyrrolidin-3-yl)-3-(4-phenoxyphenyl)-1H-pyrazole-4-carboxamide], 16.2 nM. The result for `N#CCN1CCC(n2nc(-c3ccc(Oc4ccccc4)cc3)c(C(N)=O)c2N)C1` (stereo not shown) [Example 8, 5-amino-1-[1-(cyanomethyl)pyrrolidin-3-yl]-3-(4-phenoxyphenyl)-1H-pyrazole-4-carboxamide] reads 16.5 nM; that for `N#CN1CC(n2nc(-c3ccc(Oc4ccccc4)cc3)c(C(N)=O)c2N)C1` [Example 9, 5-amino-1-(1-cyanoazetidin-3-yl)-3-(4-phenoxyphenyl)-1H-pyrazole-4-carboxamide], 23.3 nM; that for `N#CN1CCOCC(n2nc(-c3ccc(Oc4ccccc4)cc3)c(C(N)=O)c2N)C1` (stereo not shown) [Example 10, 5-amino-1-(4-cyano-1,4-oxazepan-6-yl)-3-(4-phenoxyphenyl)-1H-pyrazole-4-carboxamide], 13.5 nM.

As for `N#CN1CC2CC1CC2n1nc(-c2ccc(Oc3ccccc3)cc2)c(C(N)=O)c1N` (stereo not shown) [Example 11, 5-amino-1-(2-cyano-2-azabicyclo[2.2.1]hept-5-yl)-3-(4-phenoxyphenyl)-1H-pyrazole-4-carboxamide], the IC50 is 5.9 nM. For `N#CCN1CC2CC1CC2n1nc(-c2ccc(Oc3ccccc3)cc2)c(C(N)=O)c1N` (stereo not shown) [Example 12, 5-amino-1-[2-(cyanomethyl)-2-azabicyclo[2.2.1]hept-5-yl]-3-(4-phenoxyphenyl)-1H-pyrazole-4-carboxamide], the IC50 stood at 54.2 nM. On to `N#CN1CCCC(n2nc(-c3ccc(Oc4ccc(Cl)cc4)cc3)c(C(N)=O)c2N)C1` (stereo not shown) [Example 13, 5-amino-3-[4-(4-chlorophenoxy)phenyl]-1-(1-cyanopiperidin-3-yl)-1H-pyrazole-4-carboxamide], for which the IC50 came to 2.6 nM.

For the molecule `Cc1ccc(Oc2ccc(-c3nn(C4CCCN(C#N)C4)c(N)c3C(N)=O)cc2)cc1C` (stereo not shown) [Example 16, 5-amino-1-(1-cyanopiperidin-3-yl)-3-[4-(3,4-dimethylphenoxy)phenyl]-1H-pyrazole-4-carboxamide], the IC50 was 1.28 nM. In the case of `Cc1ccc(Oc2ccc(-c3nn(C4CCCN(C#N)C4)c(N)c3C(N)=O)cc2)c(C)c1` (stereo not shown) [Example 23, 5-amino-1-(1-cyanopiperidin-3-yl)-3-[4-(2,4-dimethylphenoxy)phenyl]-1H-pyrazole-4-carboxamide], the IC50 was found to be 9.2 nM.

With `CC(C)c1ccc(Oc2ccc(-c3nn(C4CCCN(C#N)C4)c(N)c3C(N)=O)cc2)cc1` (stereo not shown) [Example 24, 5-amino-1-(1-cyanopiperidin-3-yl)-3-[4-(4-isopropylphenoxy)phenyl]-1H-pyrazole-4-carboxamide], the concentration for half-maximal inhibition (IC50) is 5 nM. Then `N#CN1CCCC(n2nc(-c3ccc(Oc4ccc(F)cc4F)cc3)c(C(N)=O)c2N)C1` (stereo not shown) [Example 25, 5-amino-1-(1-cyanopiperidin-3-yl)-3-[4-(2,4-difluorophenoxy)phenyl]-1H-pyrazole-4-carboxamide], with 2.18 nM; and `Cc1cc(Oc2ccc(-c3nn(C4CCCN(C#N)C4)c(N)c3C(N)=O)cc2)ccc1F` (stereo not shown) [Example 31, 5-amino-1-(1-cyanopiperidin-3-yl)-3-[4-(4-fluoro-3-methylphenoxy)phenyl]-1H-pyrazole-4-carboxamide], with 2.8 nM; and `Cc1cc(F)ccc1Oc1ccc(-c2nn(C3CCCN(C#N)C3)c(N)c2C(N)=O)cc1` (stereo not shown) [Example 32, 5-amino-1-(1-cyanopiperidin-3-yl)-3-[4-(4-fluoro-2-methylphenoxy)phenyl]-1H-pyrazole-4-carboxamide], with 4.1 nM. The result for `N#CN1CCCC(n2nc(-c3ccc(Oc4ccc(F)cc4Cl)cc3)c(C(N)=O)c2N)C1` (stereo not shown) [Example 35, 5-amino-3-[4-(2-chloro-4-fluorophenoxy)phenyl]-1-(1-cyanopiperidin-3-yl)-1H-pyrazole-4-carboxamide] reads 1.7 nM; that for `Cc1ccc(Oc2ccc(-c3nn(C4CCCN(C#N)C4)c(N)c3C(N)=O)cc2)c(Cl)c1` (stereo not shown) [Example 38, 5-amino-3-[4-(2-chloro-4-methylphenoxy)phenyl]-1-(1-cyanopiperidin-3-yl)-1H-pyrazole-4-carboxamide], 2.5 nM. Then `Cc1ccc(Oc2ccc(-c3nn(C4CCCN(C#N)C4)c(N)c3C(N)=O)cc2)c(F)c1` (stereo not shown) [Example 39, 5-amino-1-(1-cyanopiperidin-3-yl)-3-[4-(2-fluoro-4-methylphenoxy)phenyl]-1H-pyrazole-4-carboxamide], with 1.1 nM. Regarding `Cc1cc(Oc2ccc(-c3nn(C4CCCN(C#N)C4)c(N)c3C(N)=O)cc2)ccc1Cl` (stereo not shown) [Example 40, 5-amino-3-[4-(4-chloro-3-methylphenoxy)phenyl]-1-(1-cyanopiperidin-3-yl)-1H-pyrazole-4-carboxamide], the IC50 worked out at 1.5 nM. As to `N#CN1CCCC(n2nc(-c3ccc(Oc4ccc(F)cc4)cc3)c(C(N)=O)c2N)C1` (stereo not shown) [Example 41, 5-amino-1-(1-cyanopiperidin-3-yl)-3-[4-(4-fluorophenoxy)phenyl]-1H-pyrazole-4-carboxamide], the IC50 is 6.3 nM. The result for `Cc1ccc(Oc2ccc(-c3nn(C4CCCN(C#N)C4)c(N)c3C(N)=O)cc2)cc1` (stereo not shown) [Example 42, 5-amino-1-(1-cyanopiperidin-3-yl)-3-[4-(4-methylphenoxy)phenyl]-1H-pyrazole-4-carboxamide] reads 1.2 nM.
